The source of these data is patent US20120322699A1, “Method of Preventing Scale Formation During Enhanced Oil Recovery” (Chevron U.S.A. Inc., priority 2011, published 2012).

Series [1] can be described thus: Bottle test of scale prevention capacity of metal complexing agents. It counts as physicochemical. As to the method:
Scale prevention capacity of the metal complexing agents were then tested using the following bottle test procedure: • 1. Synthetic field brine was prepared with NaCl and NaHCO3 (constituents of the brine) but CaCl2 and MgCl2 content was temporarily withheld to avoid premature scaling. • 2. Metal complexing agent was added to the brine above in a stoichiometrically required amount and at higher concentrations and the solution was allowed to equilibrate after thorough mixing. • 3. CaCl2 and MgCl2 were added and the brine solutions were equilibrated. • 4. In a preliminary test, the impact of pH alone was evaluated. […] If no scale was observed, step 4 was repeated with addition of Na2CO3.

For series [2] the following is noted: at 25° C.; cited from earlier work.
Series [3] is described as follows: Final bottle tests of formulations at lower agent concentrations with scale inhibitors. It counts as physicochemical. As to the method: Based on the above results, two commercial scale inhibitors were combined in synthetic brine with the metal complexing agents. The pH of the solutions was raised by addition of 1.0M NaOH to simulate the basic environment during an alkaline flood. The following procedure was used to prepare the aqueous solutions: • 1. Synthetic field brine was prepared by temporarily excluding the HCO3^−. • 2. Scale inhibitor was added and the solution was allowed to equilibrate after thorough mixing. • 3. Metal complexing agent was added to the brine above in concentrations near half of the stoichiometrically required amount and the solution was allowed to equilibrate after thorough mixing. • 4. NaHCO3 was added and the brine solutions were equilibrated. • 5.

A short description of series [4]: Initial bottle tests with BASF complexing agents without changing the pH. It counts as physicochemical. The settings on record: equimolar concentration (7,350 ppm) with the calcium ions, hard brine.
Source text: The initial bottles tests were designed at the reported calcium binding capacity of the agents without changing the pH.
Series [5] in a line: Initial screening of complexing agents and scale inhibitors with synthetic brine. It counts as physicochemical. As to conditions: for Maximum pH: complexing agents, synthetic brine 1,000 ppm Ca2+/Mg2+, 450 ppm HCO3-.
Procedure: Eight different metal complexing agents and five commercial scale inhibitors were tested according to known laboratory methods with a synthetic brine containing 1,000 ppm of divalent cation (Ca^2+/Mg^2+) and 450 ppm of HCO3^−. Among the complexing agents tested, six were organic ligands with carboxylate moieties and two were inorganic phosphates. The five scale inhibitors tested were commercial products supplied by Nalco Chemicals based on phosphonate, acrylate and sulfonate.
[6] abbreviates: agent 1.5 %, alkali NaOH, pH 8.80.
Where [7] appears, read: agent 1.5 %, alkali NaOH, pH 10.20.
Setting [8] is: agent 0.8 %, alkali Na2B2O4, pH 10.10.
[9] abbreviates: agent 1.5 %, alkali Na2B2O4, pH 10.10.
The mark [10] stands for this setting: agent 1.5 %, alkali Na2CO3, pH 10.10.
[11] abbreviates: agent 1.1 %, alkali Na2B2O4, pH 9.97.
[12] abbreviates: agent 1.1 %, alkali Na2B2O4, pH 10.10.
[13] abbreviates: agent 1.1 %, alkali Na2B2O4, pH 10.15.
The mark [14] stands for this setting: agent 1.1 %, alkali Na2CO3, pH 10.60.
[15] abbreviates: agent 1.1 %, alkali Na2CO3, pH 10.69.
The mark [16] stands for this setting: agent 1.1 %, alkali Na2CO3, pH 10.77.

On to `O=P(O)(O)OP(=O)(O)OP(=O)(O)O` [Sodium tripolyphosphate], for which the “Status (next day)” value in series [1] (agent 1.15 %, no alkali added) was “scale”; in series [1] (agent 1.5 %, no alkali added), “scale”; in series [1] (agent […], no alkali added), “scale”. Moreover, the “Status (same day)” value in series [1] (agent 1.15 %, no alkali added) is “scale”; in series [1] (agent 1.5 %, no alkali added) it was “scale”; in series [1] (agent […], no alkali added) it was “scale”. Further, the water solubility in series [2] is 14.5 g/100 mL.

In the case of `O=C(O)CN(CCN(CC(=O)O)CC(=O)O)CC(=O)O` [EDTA, ethylenediaminetetraacetic acid], in series [3] (in combination with 200 ppm VX9400), the “complexing agent concentration when used with scale inhibitor” value is 7,500 ppm.

`CC(C(=O)O)N(CC(=O)O)CC(=O)O` (stereo not shown) [MGDA, methylglycinediacetic acid]: the “complexing agent concentration when used with scale inhibitor” value in series [3] (in combination with 500 ppm VX9400) is reported as 5,500 ppm. Moreover, the “pH value up to which scaling prevented” value in series [4] is not above 9.9.

Take `O=C([O-])CN(CC(=O)[O-])CC(=O)[O-].[Na+].[Na+].[Na+]` [NTA-Na3, sodium nitrilotriacetate]: the “Status (next day)” value in series [1] (agent 0.8 %, no alkali added) is reported as “scale”; in series [1] (agent 1.1 %, no alkali added) it was “scale”; in series [1] (agent 1.5 %, no alkali added) it was “scale”. For the same compound, the “Status (same day)” value in series [1] (agent 0.8 %, no alkali added) is “scale”; in series [1] (agent 1.1 %, no alkali added), “scale”; in series [1] (agent 1.5 %, no alkali added), “scale”.

Regarding `O=P([O-])([O-])OP(=O)([O-])[O-].[K+].[K+].[K+].[K+]` [Tetrapotassium pyrophosphate], in series [1] (setting [6]), the “Status (next day)” value is given as “scale” and the “Status (same day)” value is on record as “scale”.

For the compound `O.O=C([O-])/C=C\C(=O)[O-].[Na+].[Na+]` [Sodium maleate, sodium maleate monohydrate], the “overall assessment from bottle test results” value in series [1] was “promising results”. For the same compound, in series [1] (setting [7]), the “Status (next day)” value is reported as “clear” and the “Status (same day)” value was “clear”. For the same compound, the “Maximum pH” value in series [5] was 10.2.

As to `O=C([O-])CC(O)(CC(=O)[O-])C(=O)[O-].[Na+].[Na+].[Na+]` [Sodium citrate, sodium citrate], the “overall assessment from bottle test results” value in series [1] is “not a successful selection”. Moreover, the “Status (next day)” value in series [1] (setting [8]), in series [1] (setting [9]) and in series [1] (setting [10]) was “scale” each time. For the same compound, the “Status (same day)” value in series [1] (setting [8]) is “clear”; in series [1] (setting [9]), “clear”; in series [1] (setting [10]) it was “scale”.

For `CC(=O)ON(CCN(OC(C)=O)OC(C)=O)OC(C)=O.[Na]` [EDTA-Na4, sodium ethylenediamine tetraacetate], the “Status (next day)” value in series [1] (setting [11]), in series [1] (setting [12]), in series [1] (setting [13]), in series [1] (setting [14]), in series [1] (setting [15]) and in series [1] (setting [16]) was “clear” throughout. In addition, the “Status (same day)” value in series [1] (setting [11]), in series [1] (setting [12]), in series [1] (setting [13]), in series [1] (setting [14]), in series [1] (setting [15]) and in series [1] (setting [16]) was “clear” throughout. Also, in series [5] (11,000 ppm in hard field brine (equimolar Ca:EDTA)), the “pH value up to which effective” value was not above 10.7. In addition, the “Maximum pH” value in series [5] is on record as 10.7.
